Assay: Solubility of clioquinol in an aqueous medium
Format: physicochemical
Excerpt: The invention also includes a process to dissolve, stabilize and incorporate clioquinol into an intranasal preparation. Clioquinol dissolves in DMSO. However, it precipitates upon the addition of an aqueous vehicle to that combination. In order to dissolve in an aqueous medium clioquinol requires a pH of approximately 11. A buffering system was developed that maintains the solubility and stability of clioquinol within a pH 7-8 which is compatible with the physiological pH oh the nasal tissue. The buffering system was adjusted to provide a capacity of pH 5-7, within which the preparation will be contained within 7-8 pH. The choice of the buffering system was based on the safety, chemical and physical effects of its ingredients on clioquinol and the other ingredients incorporated in the formula, as well as its effects on the end user of present pharmaceutical composition. The buffer system comprises boric acid and sodium carbonate in certain proportions to produce a protective pH 7-8 at which clioquinol stays physically and chemically stable.

Oc1c(I)cc(Cl)c2cccnc12 [Clioquinol]
pH required to dissolve in an aqueous medium: approximately 11

From patent US8987199B2, “Pharmaceutical compositions for intranasal administration for the treatment of neurodegenerative disorders” (Nerve Access, Inc., priority 2011, dated 2015)
